Results reported in US20250213543A1, “AN EMBRYONIC ECTODERM DEVELOPMENT INHIBITOR FOR THE TREATMENT OF SICKLE CELL DISEASE” (Fulcrum Therapeutics, Inc., priority 2022, published 2025).

What was measured:
Format in all cases: in vivo, human
[1] = tested on: red blood cells; assay: Phase 1 open-label study in subjects with sickle cell disease: hemolysis and anemia markers (RDW, reticulocytes, total hemoglobin); conditions: SCD Cohort 1, 6 mg once daily
Description: (§1) This is a Phase 1 multicenter, open-label study evaluating the safety, tolerability, pharmacokinetics (PK), fetal hemoglobin (HbF) induction and biological activity of Compound 1 in subjects 18-65 years of age with sickle cell disease (SCD). This study comprises 2 parts and is being conducted in subjects 18-65 years of age with sickle cell disease (SCD) either taking hydroxyurea (HU) at a stable dose for at least the preceding 3 months, or not taking hydroxyurea (HU).
(§2) The study consists of two phases. In Part A, Cohort 1 received 6 mg of Compound 1 by mouth once daily for 4 weeks, Cohort 2 received 2 mg of Compound 1 by mouth once daily for 4 weeks, and Cohort 3 received 12 mg of Compound 1 by mouth once daily for 4 weeks. An additional cohort may receive up to and including 20 mg of Compound 1 by mouth once daily for 4 weeks depending on the Data Monitoring Committee [DMC] review. Additional cohorts (up to five total cohorts) may be added based on the safety and pharmacokinetic data observed in subjects from the prior and ongoing cohorts. Up to 10 subjects have been or will be enrolled in each treatment arm.
(§3) The primary endpoints of the study are to evaluate the safety and tolerability of Compound 1 as measured by the frequency of adverse events and to evaluate single and multiple-dose pharmacokinetics of Compound 1 in subjects with sickle cell disease. […]

[2] = tested on: HBG mRNA; assay: Phase 1 MAD study: HBG mRNA induction
Description: (§4) Healthy volunteers received oral placebo vs. single oral doses of Compound 1 in the SAD cohorts, or oral placebo vs. single oral doses of Compound 1 once daily (QD) for 14 consecutive days in the MAD cohorts. Safety assessments included AEs, vital signs, ECGs, and laboratory parameters. PK/PD blood sampling was performed pre-dose and Days 1 and 2 in the SAD cohorts, and Days 1, 2, 7, 8 and 12-15 in the MAD cohorts. Target engagement was assessed as change from baseline in H3K27me3/Total Histone H3 ratio. PD assessments included changes in F reticulocytes and HBG mRNA.
Safety Follow-up (SFU) samples were collected 7-10 days post 14-day treatment period.
(§5) Data in FIG. 1 and FIG. 2 are presented as geometric LS mean ratios (to placebo) with a 95% confidence interval. Mixed-effects model for repeated measures (MMRM) analysis was performed for Day 7 and Day 14 measurements. An analysis of covariance (ANCOVA) was utilized for SFU data. In FIG. 1 and FIG. 2, “PBO” is placebo.

[3] = Phase 1 SAD/MAD clinical study in healthy volunteers: pharmacokinetics; conditions: oral, across all doses
Description: (§6) This is a study of the safety, tolerability, pharmacokinetics (PK) and pharmacodynamics (PD) of Compound 1 from a Phase 1, single ascending dose (SAD) and multiple ascending dose (MAD) clinical study.
as §4
(§7) Compound 1 was evaluated in […] healthy volunteer (HV) SAD cohorts (2 to 60 mg), […] HV MAD cohorts (2 to 30 mg QD, 14-day dosing). SAD dose cohorts include 2 mg, 4 mg, 6 mg, 10 mg, 20 mg, 30 mg, 40 mg, and 60 mg Compound 1. MAD dose cohorts include 2 mg, 4 mg, 6 mg, 10 mg, 20 mg, and 30 mg Compound 1.

[4] = tested on: F-reticulocytes; assay: Phase 1 MAD study: F-reticulocytes; conditions: safety follow-up (SFU) visits 7-10 days post 14-day treatment; dosed at ≥6 mg
Description: as §4
Increases in F-cells and HbF protein are projected with longer treatment duration.
as §5

[5] = Phase 1 SAD/MAD clinical study in healthy volunteers: safety and tolerability
Description: as §6, §4, §7

[6] = Phase 1 open-label multiple-dose study in subjects with sickle cell disease: safety and tolerability; conditions: oral once daily
Description: as §1, §2
Part B is the extension study. […]
as §3

[7] = tested on: H3K27me3/Total Histone H3 ratio; assay: Phase 1 SAD/MAD study: target engagement (change from baseline in H3K27me3/Total Histone H3 ratio); conditions: healthy volunteers; across the entire dose range
Description: as §4

[8] = tested on: fetal hemoglobin (HbF); assay: Phase 1 open-label multiple-dose study in subjects with sickle cell disease: HbF induction by HPLC
Description: as §1, §2
Part B is the extension study. Eligible subjects who consent to continue in the extension study continue on treatment at the same dose level selected in Part A for an additional 8 weeks. Subjects who decline to participate in the extension study are followed for an additional 2-3 weeks.
The primary endpoints of the study are to evaluate the safety and tolerability of Compound 1 as measured by the frequency of adverse events and to evaluate single and multiple-dose pharmacokinetics of Compound 1 in subjects with sickle cell disease. Secondary endpoints include evaluating the effect of Compound 1 on fetal hemoglobin induction in peripheral blood, as well as changes from baseline in reticulocytes, in subjects with sickle cell disease. Exploratory endpoints include biomarkers of hemolysis, target engagement, incidence of vaso-occlusive crises (VOCs), and quality of life (QOL) measurements.

[9] = SAD 2 to 60 mg, MAD 2 to 30 mg QD 14-day oral dosing

With `Cc1ncccc1-c1cc2c(n3cnnc13)NCc1c(F)ccc3c1[C@H](CO3)CO2` [Compound 1] the “absolute reticulocyte count and total hemoglobin” value [1] was “reductions in reticulocytes and increases in total hemoglobin”, the “red cell distribution width (RDW)” value ([1]; Subjects 7 and 8) was “reductions in RDW” and the “HBG mRNA induction dependence” value ([2]; MAD cohorts, FIG. 1) was “both time- and dose-dependent”. The “placebo-adjusted increases from baseline in HBG mRNA” value ([2]; healthy volunteers, 6-30 mg MAD cohorts, QD 14 days oral) was 2.4-6.2 fold, the PK profiles [3] was “dose proportionality across all doses” and the “mean fold increase in F-reticulocytes” value [4] was 1.7-3.9 fold. For the same compound, the SAEs or discontinuations [5, 9] was “no SAEs or discontinuations”, the Treatment-related adverse events [5, 9] was “mild (Grade 1 or 2)” and the “Tolerability / safety signals” value ([5]; SAD and MAD cohorts) was “generally well tolerated and no unexpected safety signals were detected”. For the same compound, the Tolerability [6] was “generally well tolerated”, the Target engagement [7] was “Robust target engagement” and the “response differences in HU versus non-HU treated subjects” value ([8]; SCD Cohort 1, 6 mg once daily, Subjects 7 and 8) was “no apparent response differences”. The HbF increase ([8]; SCD Cohort 1, 6 mg orally once daily, Subjects 7 and 8 (with and without HU), day 84) was 6.8%-9.5%, the “HbF response across doses” value ([8]; SCD Cohorts 1 and 2 (6 mg and 2 mg orally once daily)) was “dose-dependent, clinically relevant and consistent increase in HbF” and the “absolute HbF increases from baseline” value ([8]; SCD, a subject in the 12 mg dose cohort (Cohort 3), after 42 days of treatment) was “up to 10.0%”.
